{"source": "patent US9499550B2", "about": "(BRISTOL-MYERS SQUIBB COMPANY, priority 2012, dated 2016)", "key": {"HCV": {"test_system": "HCV", "settings": "combination therapy, HCV infected patients; cited from earlier work"}, "[1]": {"test_system": "HCV genotype 1a (H77 strain) replicon in HUH-7 cells", "test": "HCV replicon luciferase reporter assay, genotype 1a", "type": "cell-based", "settings": "3 days incubation, read-out: LE_1a (EC50, range)", "summary_of_the_method": "(§1)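 Replicon inhibition for both genotypes was measured as Renilla luciferase signal (EnduRen, 7.5 μM final, 2 h) after 3-day, 37° C exposure of replicon-bearing HUH-7 cells in 4% FCS DMEM, 0.5% DMSO. The 1b construct carries S1179I; the 1a H77 construct carries P1496L and S2204I. Twenty-point, 3-fold dilutions were fitted four-parametrically for EC50, and CC50 was taken from multiplexed Cell Titer-Blue.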"}, "[2]": {"test_system": "HCV genotype 1b (Con1) replicon in HUH-7 cells", "test": "HCV replicon luciferase reporter assay, genotype 1b", "type": "cell-based", "settings": "3 days incubation, read-out: LE_1b (EC50, range)", "summary_of_the_method": "as §1"}, "[3]": {"settings": "Hepatitis C virus, Huh-7, 72 h, HCV genotype 1a replicon luciferase"}, "[4]": {"settings": "Hepatitis C virus, Huh-7, 72 h, HCV genotype 1b replicon luciferase"}, "[5]": {"settings": "Hepatitis C virus, GETYPE1A, Huh-7, 72 h, HCV genotype 1a replicon luciferase"}, "[6]": {"settings": "Hepatitis C virus, GETYPE1B, Huh-7, 72 h, HCV genotype 1b replicon luciferase"}}, "note": "Read-outs that look alike come from different tables or passages of the source."}
{"molecule": "alpha-interferon and ribavirin", "values": [{"measurement": "sustained efficacy", "setting": "HCV", "result": "40 % of patients"}]}
{"molecule": "CC[C@@H]1C[C@H](C)CC/C=C\\[C@@H]2C[C@@]2(C(=O)NS(=O)(=O)C2CC2)NC(=O)[C@@H]2C[C@@H](Oc3nccc4cc(OC)c(F)cc34)CN2C(=O)[C@H]1NC(=O)OC(C)(C)C(F)(F)F", "note": "[Compound 4004, 1,1,1-trifluoro-2-methylpropan-2-yl (2R,6S,7R,9R,13aS,14aR,16aS,Z)-14a-(cyclopropylsulfonylcarbamoyl)-7-ethyl-2-(7-fluoro-6-methoxyisoquinolin-1-yloxy)-9-methyl-5,16-dioxo-1,2,3,5,6,7,8,9,10,11,13a,14,14a,15,16,16a-hexadecahydrocyclopropa[e]pyrrolo[1,2-a][1,4]diazacyclopentadecin-6-ylcarbamate]", "values": [{"measurement": "EC50", "setting": "[1]; [3]", "result": "< 5.46", "unit": "nM"}, {"measurement": "EC50", "setting": "[2]; [4]", "result": "< 5.46", "unit": "nM"}]}
{"molecule": "COc1ccc2c(O[C@@H]3C[C@H]4C(=O)N[C@]5(C(=O)NS(=O)(=O)C6CC6)C[C@H]5/C=C\\CC[C@@H](C)C[C@@H](C)[C@H](NC(=O)OC(C)(C)C(F)(F)F)C(=O)N4C3)nc(-c3ccc(N4CCOCC4)cc3)cc2c1", "note": "[Compound 5197, 1,1,1-trifluoro-2-methylpropan-2-yl((2R,6S,7R,9R,13aS,14aR,16aS,Z)-14a-((cyclopropylsulfonyl)carbamoyl)-2-((6-methoxy-3-(4-morpholinophenyl)isoquinolin-1-yl)oxy)-7,9-dimethyl-5,16-dioxo-1,2,3,5,6,7,8,9,10,11,13a,14,14a,15,16,16a-hexadecahydrocyclopropa[e]pyrrolo[1,2-a][1,4]diazacyclopentadecin-6-yl)carbamate]", "values": [{"measurement": "EC50", "setting": "[1]; [3]", "result": "< 5.46", "unit": "nM"}, {"measurement": "EC50", "setting": "[2]; [4]", "result": "< 5.46", "unit": "nM"}]}
{"molecule": "CC[C@@H]1C[C@H](C)CC/C=C\\[C@@H]2C[C@@]2(C(=O)NS(=O)(=O)C2(C)CC2)NC(=O)[C@@H]2C[C@@H](Oc3nccc4cc(OC)c(Cl)cc34)CN2C(=O)[C@H]1NC(=O)OC(C)(C)C(F)F", "note": "[Compound 3226, 1,1-difluoro-2-methylpropan-2-yl((2R,6S,7R,9R,13aS,14aR,16aS,Z)-2-((7-chloro-6-methoxyisoquinolin-1-yl)oxy)-7-ethyl-9-methyl-14a-(((1-methylcyclopropyl)sulfonyl)carbamoyl)-5,16-dioxo-1,2,3,5,6,7,8,9,10,11,13a,14,14a,15,16,16a-hexadecahydrocyclopropa[e]pyrrolo[1,2-a][1,4]diazacyclopentadecin-6-yl)carbamate]", "values": [{"measurement": "EC50", "setting": "[1]; [3]", "result": "1.01 to 5", "unit": "nM"}, {"measurement": "EC50", "setting": "[2]; [4]", "result": "0.51 to 1", "unit": "nM"}]}
{"molecule": "CCOc1ccc2ncc(O[C@@H]3C[C@H]4C(=O)N[C@]5(C(=O)NS(=O)(=O)C6(C)CC6)C[C@H]5/C=C\\CC[C@@H](C)C[C@@H](CC)[C@H](NC(=O)OC(C)(C)C(F)(F)F)C(=O)N4C3)cc2c1", "note": "[Compound 4314]", "values": [{"measurement": "EC50", "setting": "[1]; [5]", "result": "1.01 to 5", "unit": "nM"}, {"measurement": "EC50", "setting": "[2]; [6]", "result": "1.01 to 5", "unit": "nM"}]}
{"molecule": "CC[C@@H]1C[C@@H](C)CC/C=C\\[C@@H]2C[C@@]2(C(=O)NS(=O)(=O)C2CC2)NC(=O)[C@@H]2C[C@@H](Oc3nccc4c5c(ccc34)N(C)CCO5)CN2C(=O)[C@H]1NC(=O)NC(C)(C)C", "note": "[Compound 5315, (2R,6S,7R,9S,13aS,14aR,16aS,Z)-6-(3-(tert-butyl)ureido)-N-(cyclopropylsulfonyl)-7-ethyl-9-methyl-2-((4-methyl-3,4-dihydro-2H-[1,4]oxazino[2,3-f]isoquinolin-7-yl)oxy)-5,16-dioxo-1,2,3,5,6,7,8,9,10,11,13a,14,14a,15,16,16a-hexadecahydrocyclopropa[e]pyrrolo[1,2-a][1,4]diazacyclopentadecine-14a-carboxamide]", "values": [{"measurement": "EC50", "setting": "[1]; [3]", "result": "4.82 to 103", "unit": "nM"}, {"measurement": "EC50", "setting": "[2]; [4]", "result": "4.82 to 103", "unit": "nM"}]}
{"molecule": "1,1,1-trifluoro-2-methylpropan-2-yl((2R,6S,7R,9R,13aS,14aR,16aS,Z)-14a-((cyclopropylsulfonyl)carbamoyl)-2-((3,7-dimethoxy-2-(trifluoromethyl)quinoxalin-6-yl)oxy)-7-ethyl-9-methyl-5,16-dioxo-1,2,3,5,6,7,8,9,10,11,13a,14,14a,15,16,16a-hexadecahydrocyclopropa[e]pyrrolo[1,2-a][1,4]diazacyclopentadecin-6-yl)carbamate [Compound 4355]", "values": [{"measurement": "EC50", "setting": "[1]; HCV genotype 1a replicon luciferase", "result": "5.01 to 35", "unit": "nM"}, {"measurement": "EC50", "setting": "[2]; HCV genotype 1b replicon luciferase", "result": "5.01 to 35", "unit": "nM"}]}
{"molecule": "CCCOc1cc2c(Cl)cccc2c(O[C@@H]2C[C@H]3C(=O)N[C@]4(C(=O)NS(=O)(=O)C5CC5)C[C@H]4/C=C\\CC[C@@H](C)C[C@@H](C)[C@H](NC(=O)OC(C)(C)C(F)(F)F)C(=O)N3C2)n1", "note": "[Compound 1084, 1,1,1-trifluoro-2-methylpropan-2-yl((2R,6S,7R,9R,13aS,14aR,16aS,Z)-2-((5-chloro-3-propoxyisoquinolin-1-yl)oxy)-14a-((cyclopropylsulfonyl)carbamoyl)-7,9-dimethyl-5,16-dioxo-1,2,3,5,6,7,8,9,10,11,13a,14,14a,15,16,16a-hexadecahydrocyclopropa[e]pyrrolo[1,2-a][1,4]diazacyclopentadecin-6-yl)carbamate]", "values": [{"measurement": "EC50", "setting": "[1]; Hepatitis C virus, Huh-7, 72 h, HCV genotype 1a replicon luciferase assay, range class", "result": "< 5.46", "unit": "nM"}, {"measurement": "EC50", "setting": "[2]; Hepatitis C virus, Huh-7, 72 h, HCV genotype 1b replicon luciferase assay, range class", "result": "< 5.46", "unit": "nM"}]}
{"molecule": "COc1ccc2c(O[C@@H]3C[C@H]4C(=O)N[C@]5(C(=O)NS(=O)(=O)C6CC6)C[C@H]5/C=C\\CC[C@@H](C)C[C@@H](C)[C@H](NC(=O)OC5C[C@@H]6C[C@@H]6C5)C(=O)N4C3)nc(-c3ccc(OC(C)C)cn3)cc2c1", "note": "(stereo partly drawn) [Compound 5209, (1R,3r,5S)-bicyclo[3.1.0]hexan-3-yl((2R,6S,7R,9R,13aS,14aR,16aS,Z)-14a-((cyclopropylsulfonyl)carbamoyl)-2-((3-(5-isopropoxypyridin-2-yl)-6-methoxyisoquinolin-1-yl)oxy)-7,9-dimethyl-5,16-dioxo-1,2,3,5,6,7,8,9,10,11,13a,14,14a,15,16,16a-hexadecahydrocyclopropa[e]pyrrolo[1,2-a][1,4]diazacyclopentadecin-6-yl)carbamate]", "values": [{"measurement": "EC50", "setting": "[1]; [3]", "result": "< 5.46", "unit": "nM"}, {"measurement": "EC50", "setting": "[2]; [4]", "result": "< 5.46", "unit": "nM"}]}
{"molecule": "CC[C@@H]1C[C@H](C)CC/C=C\\[C@@H]2C[C@@]2(C(=O)NS(=O)(=O)C2(C)CC2)NC(=O)[C@@H]2C[C@@H](Oc3nc(OC)cc4cc(OC)c(F)cc34)CN2C(=O)[C@H]1NC(=O)OC(C)(C)C(C)(F)F", "note": "[Compound 1188]", "values": [{"measurement": "EC50", "setting": "[1]; [5]", "result": "1.01 to 5", "unit": "nM"}, {"measurement": "EC50", "setting": "[2]; [6]", "result": "0.51 to 1", "unit": "nM"}]}
